Measured values from ChEMBL document CHEMBL3885881, “DrugMatrix”.

Organism: Rattus norvegicus
Experiment: DrugMatrix - Regimen: Daily Repeat
Assay type: toxicity, organism-based, Sprague-Dawley
Set-up: regimen Daily Repeat, gender Male, age 6-8 weeks
Settings: in vivo, po, 18 mg/kg, route oral GAVAGE, dose level High, […]; for ABSOLUTE BASOPHIL / ABSOLUTE EOSINOPHIL / ABSOLUTE LYMPHOCYTE / ABSOLUTE MONOCYTE / ABSOLUTE SEGMENTED NEUTROPHIL / BASOPHIL / EOSINOPHIL / ERYTHROCYTE COUNT / HEMATOCRIT / HEMOGLOBIN / LEUKOCYTE COUNT / LYMPHOCYTE / MEAN CORPUSCULAR HEMOGLOBIN / MEAN CORPUSCULAR HEMOGLOBIN CONCENTRATION / MEAN CORPUSCULAR VOLUME / MONOCYTE / NEUTROPHIL / NUCLEATED RED BLOOD CELLS / PLATELET COUNT: tissue Blood; for ALANINE AMINOTRANSFERASE / ALBUMIN / ALKALINE PHOSPHATASE / ASPARTATE AMINOTRANSFERASE / BLOOD UREA NITROGEN / CARBON DIOXIDE / CHLORIDE / CHOLESTEROL / CREATINE PHOSPHOKINASE / CREATININE / GLUCOSE / LACTATE DEHYDROGENASE / LIPASE / PHOSPHORUS / POTASSIUM / SODIUM / TOTAL BILIRUBIN / TOTAL PROTEIN / URIC ACID: tissue Plasma

CC(C(=O)O)c1ccc(CC2CCCC2=O)cc1 (stereo unspecified) [LOXOPROFEN]
ABSOLUTE BASOPHIL (72 h, time 3 day): 0 CELLS/uL
ABSOLUTE EOSINOPHIL (72 h, time 3 day): 0 CELLS/uL
ABSOLUTE LYMPHOCYTE (72 h, time 3 day): 12885.33 CELLS/uL
ABSOLUTE MONOCYTE (72 h, time 3 day): 42.67 CELLS/uL
ABSOLUTE SEGMENTED NEUTROPHIL (72 h, time 3 day): 1338.67 CELLS/uL
BASOPHIL (72 h, time 3 day): 0%
EOSINOPHIL (72 h, time 3 day): 0%
ERYTHROCYTE COUNT (72 h, time 3 day): 5.2 x10E6/uL
HEMATOCRIT (72 h, time 3 day): 32.2%
HEMOGLOBIN (72 h, time 3 day): 13.03 G/DL
LEUKOCYTE COUNT (72 h, time 3 day): 14.27 x10E3/uL
LYMPHOCYTE (72 h, time 3 day): 90.67%
MEAN CORPUSCULAR HEMOGLOBIN (72 h, time 3 day): 25.1 pg
MEAN CORPUSCULAR HEMOGLOBIN CONCENTRATION (72 h, time 3 day): 40.53 G/DL
MEAN CORPUSCULAR VOLUME (72 h, time 3 day): 61.93 fL
MONOCYTE (72 h, time 3 day): 0.33%
NEUTROPHIL (72 h, time 3 day): 9%
NUCLEATED RED BLOOD CELLS (72 h, time 3 day): 0 /100WBC
PLATELET COUNT (72 h, time 3 day): 1130.33 x10E3/uL
ALANINE AMINOTRANSFERASE (72 h, time 3 day): 76.67 u/L
ALBUMIN (72 h, time 3 day): 4.03 G/DL
ALKALINE PHOSPHATASE (72 h, time 3 day): 346.33 u/L
ASPARTATE AMINOTRANSFERASE (72 h, time 3 day): 93 u/L
BLOOD UREA NITROGEN (72 h, time 3 day): 15.67 mg/dL
CARBON DIOXIDE (72 h, time 3 day): 30.33 mmol/L
CHLORIDE (72 h, time 3 day): 102.33 MEQ/L
CHOLESTEROL (72 h, time 3 day): 83 mg/dL
CREATINE PHOSPHOKINASE (72 h, time 3 day): 423.33 u/L
CREATININE (72 h, time 3 day): 0.36 mg/dL
GLUCOSE (72 h, time 3 day): 148.67 mg/dL
LACTATE DEHYDROGENASE (72 h, time 3 day): 236.33 u/L
LIPASE (72 h, time 3 day): 13 u/L
PHOSPHORUS (72 h, time 3 day): 11.07 mg/dL
POTASSIUM (72 h, time 3 day): 6.41 MEQ/L
SODIUM (72 h, time 3 day): 143.6 MEQ/L
TOTAL BILIRUBIN (72 h, time 3 day): 0.27 mg/dL
TOTAL PROTEIN (72 h, time 3 day): 5.63 G/DL
URIC ACID (72 h, time 3 day): 1.1 mg/dL
ABSOLUTE BASOPHIL (120 h, time 5 day): 0 CELLS/uL
ABSOLUTE EOSINOPHIL (120 h, time 5 day): 118 CELLS/uL
ABSOLUTE LYMPHOCYTE (120 h, time 5 day): 14441.67 CELLS/uL
ABSOLUTE MONOCYTE (120 h, time 5 day): 168.67 CELLS/uL
ABSOLUTE SEGMENTED NEUTROPHIL (120 h, time 5 day): 1438.33 CELLS/uL
BASOPHIL (120 h, time 5 day): 0%
EOSINOPHIL (120 h, time 5 day): 1%
ERYTHROCYTE COUNT (120 h, time 5 day): 5.58 x10E6/uL
HEMATOCRIT (120 h, time 5 day): 34.33%
HEMOGLOBIN (120 h, time 5 day): 13.8 G/DL
LEUKOCYTE COUNT (120 h, time 5 day): 16.17 x10E3/uL
LYMPHOCYTE (120 h, time 5 day): 90%
MEAN CORPUSCULAR HEMOGLOBIN (120 h, time 5 day): 24.77 pg
MEAN CORPUSCULAR HEMOGLOBIN CONCENTRATION (120 h, time 5 day): 40.2 G/DL
MEAN CORPUSCULAR VOLUME (120 h, time 5 day): 61.53 fL
MONOCYTE (120 h, time 5 day): 1%
NEUTROPHIL (120 h, time 5 day): 8%
NUCLEATED RED BLOOD CELLS (120 h, time 5 day): 0 /100WBC
PLATELET COUNT (120 h, time 5 day): 1237 x10E3/uL
ALANINE AMINOTRANSFERASE (120 h, time 5 day): 60.67 u/L
ALBUMIN (120 h, time 5 day): 4.13 G/DL
ALKALINE PHOSPHATASE (120 h, time 5 day): 356.33 u/L
ASPARTATE AMINOTRANSFERASE (120 h, time 5 day): 101 u/L
BLOOD UREA NITROGEN (120 h, time 5 day): 17 mg/dL
CARBON DIOXIDE (120 h, time 5 day): 27.67 mmol/L
CHLORIDE (120 h, time 5 day): 103.33 MEQ/L
CHOLESTEROL (120 h, time 5 day): 67.67 mg/dL
CREATINE PHOSPHOKINASE (120 h, time 5 day): 434 u/L
CREATININE (120 h, time 5 day): 0.18 mg/dL
GLUCOSE (120 h, time 5 day): 141 mg/dL
LACTATE DEHYDROGENASE (120 h, time 5 day): 660 u/L
LIPASE (120 h, time 5 day): 10.67 u/L
PHOSPHORUS (120 h, time 5 day): 11.17 mg/dL
POTASSIUM (120 h, time 5 day): 5.74 MEQ/L
SODIUM (120 h, time 5 day): 144.53 MEQ/L
TOTAL BILIRUBIN (120 h, time 5 day): 0.23 mg/dL
TOTAL PROTEIN (120 h, time 5 day): 5.77 G/DL
URIC ACID (120 h, time 5 day): 1.33 mg/dL
